Assay results from US12509451B2, “Heteroaryl amide inhibitors of CD38” (NAPA THERAPEUTICS LTD., priority 2020, dated 2025).

Assays:
[1] = tested on: human liver microtissues (hepatocytes, Kupffer cells, endothelial and stellate cells) in NASH induction media; assay: Human 3D NASH model (InSphero Human 3D InSight), release of inflammatory markers; format: cell-based; settings: supernatant, day 5
Protocol: The efficacy of Compound 35 was also determined in a NASH model (see InSphero Human 3D InSight™ Brunswick, ME) to investigate the effect of the molecule on the pathophysiological phenotype of NASH such as release of inflammatory markers. The microtissue model used is a co-culture of 4 different cell types of human liver cells (hepatocytes, Kupffer cells, endothelial and stellate cells) cultured for 10 days in a NASH induction media containing FFA, LPS and high levels of sugars. In the LEAN group the microtissues were cultured for 10 days in physiological-like medium. The reference compound, Selonsertib, a selective ASK1 inhibitor, was used as a down regulator of inflammatory markers. Cytokine and chemokine release in the supernatant were measured at day 5 using Magnetic Luminex® Assay (R&D Systems).

[2] = biological target: T1, recombinant rat CD38 Protein (Rattus norvegicus, UniProt Q64244); assay: Fluorescence-based NAD+ hydrolase activity assay with rat recombinant CD38 protein (Assay 6); format: biochemical; settings: read-out: Assay 6 Arithmetic mean IC50
T1 construct: purchased Sino Biological
T1 sequence (Q64244 1-303): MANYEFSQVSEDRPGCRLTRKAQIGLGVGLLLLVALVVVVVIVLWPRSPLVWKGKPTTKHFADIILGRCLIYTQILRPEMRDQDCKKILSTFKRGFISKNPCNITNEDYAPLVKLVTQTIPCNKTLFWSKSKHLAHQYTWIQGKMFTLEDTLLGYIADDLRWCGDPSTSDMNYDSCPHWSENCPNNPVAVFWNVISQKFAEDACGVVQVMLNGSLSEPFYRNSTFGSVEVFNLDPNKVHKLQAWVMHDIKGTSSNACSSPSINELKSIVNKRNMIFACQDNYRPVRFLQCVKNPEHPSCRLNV
Protocol: This protocol was modified from the following references: Muller et al. (1983); Schultz et al. (2018); Matalonga et al. (2017); and de Oliveira et al. (2018), supra.
NAD+ hydrolase activity of the rat recombinant CD38 protein treated with test compounds was measured using a fluorescence-based assay. Briefly, recombinant rat CD38 Protein (Sino Biological) was resuspended in 44 μl/well of Sucrose-Tris Buffer (Sucrose 0.25 M, Tris pH 7.4 40 mM) and plated in a 96 well black plate (CORNING) at a density of 2.5 ng/well.
Each test compound was received in a powder state and dissolved in DMSO as a 25 mM stock solution. Each test compound was serially diluted in order to generate a dose-response curve. […]
The reaction was started adding nicotinamide 1,N^6-etheno-adenine dinucleotide (Sigma Aldrich) to reach a final concentration of 80 µM. The samples were excited at 321-15 nm and the emission of fluorescence was measured at 410-20 nm at 37° C. every minute for 1 hr in a Clariostar Microplate® reader (BMG LABTECH). NAD+ hydrolase activity was calculated as the slope of the linear portion of the fluorescence-time curve using the MARS data analysis software (BMG LABTECH). The data were uploaded in the Collaborative Drug Design (CDD) Software and for each compound the IC50 was calculated by the software. […] For each plate, the z-factor was also calculated as a plate quality using the CDD software.

CD38 = biological target: T2, CD38 (Mus musculus, UniProt P56528); assay: LPS-induced inflammation in mice, MS analysis of NAD+ metabolism in spleen and liver; format: in vivo
T2 construct: aged mice (male C57BL6/J, 22 months old) were fasted for 4 hr; from tissue; host or cells: C57BL6/J mice (aged, DIO obese or LPS-challenged); liver, spleen, plasma
T2 sequence (P56528 1-304): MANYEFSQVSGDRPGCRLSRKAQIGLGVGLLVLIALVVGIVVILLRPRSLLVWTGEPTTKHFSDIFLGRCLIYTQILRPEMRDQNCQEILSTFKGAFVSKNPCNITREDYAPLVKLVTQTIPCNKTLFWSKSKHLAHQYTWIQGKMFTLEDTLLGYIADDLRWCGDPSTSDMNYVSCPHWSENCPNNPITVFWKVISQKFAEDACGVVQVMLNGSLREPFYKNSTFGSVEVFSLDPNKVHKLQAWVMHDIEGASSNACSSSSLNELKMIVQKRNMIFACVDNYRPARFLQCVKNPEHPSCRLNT
Protocol: The in vivo efficacy of Compound 39 against the human CD38 enzyme after LPS challenge was assessed. The effects of Compound 39 (10 mg/kg and 30 mg/kg) on inflammato cytokines, inflammation markers and NAD+ levels at 4 h and 8 h points after LPS-induced inflammation in 12 weeks old male C57BL/6J mice were evaluated.
Animals were euthanized by terminal cardiac blood puncture immediately after terminal CO2, 4 h and 8 h after LPS administration. At necropsy, the tissues (Liver, Plasma, Spleen, Kidney, Lungs, Heart, Visceral Adipose Tissue, Muscle-Gastrocnemius) were collected and quick frozen in liquid nitrogen. The blood was collected in a BD Microtainer® K2EDTA Additive Tube, centrifuge at 1000 g for 10 min at 4° C. and plasma was store at −80° C.).

[3] = 30 mg/kg, 8 hours post LPS challenge

Structure (SMILES) | release of NASH-induced inflammatory marker IL-8 [1] | release of NASH-induced inflammatory marker IP-10/CXCL-10 [1] | release of NASH-induced inflammatory marker MIP-1α/CCL3 [1] | release of NASH-induced inflammatory marker TNFα [1] | IC50 [2] | increase of NAD+ levels in liver (CD38; 10 mg/kg, 8 hours post LPS challenge) | decrease of NAM levels in liver (CD38; [3]) | increase of NAD+ levels in spleen (CD38; [3]) | decrease in ADPR levels in spleen (CD38; 30 mg/kg, 8 h treatment) | ADPR levels in liver (CD38; treatment arms, 4 hours post LPS challenge)
COc1cc(C(=O)Nc2ccnc(C(F)(F)F)c2)nc(-n2ccnc2)c1 [Compound 35, 6-(1H-imidazol-1-yl)-4-methoxy-N-(2-(trifluoromethyl)pyridin-4-yl)picolinamide] | effectiveness in downregulating | effectiveness in downregulating | effectiveness in downregulating | effectiveness in downregulating | – | – | – | – | – | –
COCCOc1cc(C(=O)Nc2ccnc(C(F)(F)F)c2)nc(-n2ccnc2)n1 [Compound 39, 2-(1H-imidazol-1-yl)-6-(2-methoxyethoxy)-N-(2-(trifluoromethyl)pyridin-4-yl)pyrimidine-4-carboxamide] | – | – | – | – | 1 to 50 nM | 2 fold | 38% | 2.3 fold | 40% | decrease
